Source: US8658801B2, “Pesticides containing a bicyclic bisamide structure” (Syngenta Crop Protection, LLC, priority 2006, dated 2014)

Columns and labels:
[1] = test system: Spodoptera littoralis (Egyptian Cotton Leafworm); experiment: Example B1: activity against Spodoptera littoralis, larvicide, feeding/residual contact, preventive (cotton leaf discs); type: in vivo; details: foliar, 72 h, 3 days after treatment, L1 larvae
Text: Activity Against Spodoptera littoralis (Egyptian Cotton Leafworm)
(§1) (Larvicide, Feeding/Residual Contact Activity, Preventive)
The samples are checked for mortality, repellent effect, feeding behaviour, and growth regulation 3 days after treatment. In this test, compounds listed in Table P above show good activity. In particular compounds P.1, P.2, P.3, P.4, P.5, P.6, P.7, P.9, P.10, P.11, P.12, P.13, P.15, P.16, P.17, P.18, P.19, P.20, P.21, P.22, P.23, P.24, P.25, P.26, P.27, P.28, P.29, P.30, P.31, P.32, P.33, P.34, P.35, P.36, P.37, P.38, P.39, P.40, P.41, P.42, P.43, P.44, P.45, P.46, P.47, P.48, P.49, P.50, P.51, P.52, P.53, P.54, P.55, P.56, P.57, P.58, P.59, P.60, P.61, P.63, P.64, P.67, P.68 and P.70 show an activity of over 80% at a concentration of 400 ppm.

[2] = test system: Myzus persicae (Green Peach Aphid); experiment: Example B5: activity against Myzus persicae, mixed population, feeding/residual contact, preventive (sunflower leaf discs); details: foliar, 144 h, read-out: activity
[3] = test system: Heliothis virescens (Tobacco Budworm); experiment: Example B2: activity against Heliothis virescens, ovo-larvicide, feeding/contact, curative; type: in vivo; details: 96 h, 4 days incubation, eggs 0-24 h old
Experimental: Activity Against Heliothis virescens (Tobacco Budworm)
(Ovo-Larvicide, Feeding/Contact Activity, Curative)
Eggs (0-24 h old) are placed in 24-well microtiter plate on artificial diet and treated with test solutions by pipetting. After an incubation period of 4 days, samples are checked for egg mortality, larval mortality, and growth regulation.

[4] = test system: Plutella xylostella (Diamond Back Moth); experiment: Example B3: Plutella xylostella, larvicide, feeding/residual contact, preventive (artificial diet MTP); type: in vivo; details: 120 h, 5 days incubation, L2 larvae
Experimental: Plutella xylostella (Diamond Back Moth)
as §1
24-well microtiter plate (MTP) with artificial diet is treated with test solutions by pipetting. After drying, the MTP's are infested with larvae (L2)(10-15 per well). After an incubation period of 5 days, samples are checked for larval mortality, antifeedant and growth regulation. In this test, compounds listed in Table P above show good activity. In particular compounds P.1, P.2, P.3, P.4, P.5, P.6, P.7, P.9, P.10, P.11, P.12, P.13, P.15, P.16, P.17, P.18, P.19, P.20, P.21, P.22, P.23, P.25, P.26, P.27, P.28, P.29, P.30, P.31, P.32, P.33, P.34, P.35, P.36, P.37, P.38, P.39, P.40, P.41, P.42, P.43, P.44, P.46, P.47, P.48, P.49, P.50, P.51, P.52, P.53, P.54, P.55, P.56, P.57, P.58, P.59, P.60, P.61, P.63, P.64, P.67, P.68, P.69 P.70, P.72, P.74, P.77, P78 and P.79 show an activity of over 80% at a concentration of 400 ppm.

[5] = test system: Diabrotica balteata (Corn Root Worm); experiment: Example B4: Diabrotica balteata, larvicide, feeding/residual contact, preventive; type: in vivo; details: 120 h, 5 days incubation, L2 larvae
Experimental: Diabrotica balteata (Corn Root Worm)
as §1
After drying, the MTP's are infested with larvae (L2)(6-10 per well). After an incubation period of 5 days, samples are checked for larval mortality, antifeedant and growth regulation. In this test, compounds listed in Table P above show good activity. In particular compounds P.1, P.2, P.5, P.6, P.10, P.11, P.12, P.13, P.15, P.16, P.17, P.18, P.19, P.24, P.25, P.27, P.28, P.29, P.30, P.31, P.33, P.34, P.35, P.37, P.38, P.39, P.42, P.43, P.44, P.45, P.46, P.47, P.48, P.49, P.50, P.52, P.53, P.65, P.67, P.68, P.69, P.70, P.71, P.72, P.75, P.78, and P.79 show an activity of over 80% at a concentration of 400 ppm.

[6] = test system: Thrips tabaci (Onion Thrips); experiment: Example B7: activity against Thrips tabaci, mixed population, feeding/residual contact, preventive; details: 144 h, read-out: activity
[7] = test system: Myzus persicae (Green Peach Aphid); experiment: Example B6: activity against Myzus persicae, mixed population, systemic/feeding, curative (pea seedling roots); details: 144 h, read-out: activity

Measured: pest or weed control at 400 ppm

O=C(NCC1CC1)c1c(NC(=O)c2cc(C(F)(F)F)nn2-c2ncccc2Cl)ccc2cc[nH]c12 [P.2]
not listed: [6] | [7]
> 80%: all other assays above

CC(C)NC(=O)c1c(NC(=O)c2cc(C(F)(F)F)nn2-c2ncccc2Cl)ccc2cn[nH]c12 [P.3]
> 80%: [1] | [6] | [3] | [4]

CNC(=O)c1c(NC(=O)c2cc(C(F)(F)F)nn2-c2ncccc2Cl)ccc2cn[nH]c12 [P.6]
> 80%: [1] | [3] | [4] | [5]

CC(C)(CS(C)(=O)=O)NC(=O)c1c(NC(=O)c2cc(C(F)(F)F)nn2-c2ncccc2Cl)ccc2cn[nH]c12 [P.9]
> 80%: [1] | [2] | [3] | [4]

CC(C)NC(=O)c1c(NC(=O)c2cc(C(F)(F)F)nn2-c2ncccc2Cl)c(Br)cc2cn[nH]c12 [P.16]
not listed: [7]
> 80%: all other assays above

CC(C)NC(=O)c1c(NC(=O)c2cc(C(F)(F)F)nn2-c2ncccc2Cl)c(C#N)cc2cn[nH]c12 [P.25]
not listed: [7]
> 80%: all other assays above

N#Cc1cc2cn[nH]c2c(C(=O)NC2(C3CC3)CC2)c1NC(=O)c1cc(C(F)(F)F)nn1-c1ncccc1Cl [P.26]
> 80%: [1] | [6] | [3] | [4]

COc1cc(C(=O)Nc2c(Br)cc3cn[nH]c3c2C(=O)NCC2CC2)n(-c2ncccc2Cl)n1 [P.36]
not listed: [5] | [6]
> 80%: all other assays above

CCNC(=O)c1c(NC(=O)c2cc(OC)nn2-c2ncccc2Cl)c(Br)cc2cn[nH]c12 [P.50]
> 80%: all assays above

COc1cc(C(=O)Nc2c(Br)cc3cn[nH]c3c2C(=O)NC(C)(C)CSC)n(-c2ncccc2Cl)n1 [P.51]
not listed: [5]
> 80%: all other assays above

COc1cc(C(=O)Nc2c(C#N)cc3cn[nH]c3c2C(=O)NC(C)C)n(-c2ncccc2Cl)n1 [P.55]
not listed: [5]
> 80%: all other assays above

COc1cc(C(=O)Nc2c(Cl)cc3cn[nH]c3c2C(=O)NC(C)(C)CSC)n(-c2ncccc2Cl)n1 [P.57]
not listed: [5]
> 80%: all other assays above

CCNC(=O)c1c(NC(=O)c2cc(OC)nn2-c2ncccc2Cl)c(Cl)cc2cn[nH]c12 [P.58]
not listed: [5]
> 80%: all other assays above

COc1cc(C(=O)Nc2c(Cl)cc3cn[nH]c3c2C(=O)NC2(C)CSC2)n(-c2ncccc2Cl)n1 [P.59, 5-chloro-6-{[2-(3-chloro-pyridin-2-yl)-5-methoxy-2H-pyrazole-3-carbonyl]-amino}-1H-indazole-7-carboxylic acid (3-methyl-thietan-3-yl)-amide]
not listed: [5]
> 80%: all other assays above

COc1cc(C(=O)Nc2c(Cl)cc3c(Br)n[nH]c3c2C(=O)NC(C)C)n(-c2ncccc2Cl)n1 [P.63, 3-bromo-5-chloro-6-{[2-(3-chloro-pyridin-2-yl)-5-methoxy-2H-pyrazole-3-carbonyl]-amino}-1H-indazole-7-carboxylic acid isopropylamide]
> 80%: [1] | [6] | [3] | [4]

COc1cc(C(=O)Nc2c(Cl)cc3c(Br)n[nH]c3c2C(=O)NC2(C3CC3)CC2)n(-c2ncccc2Cl)n1 [P.64, 3-bromo-5-chloro-6-{[2-(3-chloro-pyridin-2-yl)-5-methoxy-2H-pyrazole-3-carbonyl]-amino}-1H-indazole-7-carboxylic acid bicyclopropyl-1-ylamide]
> 80%: [1] | [6] | [3] | [4]

Cc1cc2cn[nH]c2c(C(=O)NC(C)C)c1NC(=O)c1cc(Br)nn1-c1ncccc1Cl [P.65, 6-{[5-bromo-2-(3-chloro-pyridin-2-yl)-2H-pyrazole-3-carbonyl]-amino}-5-methyl-1H-indazole-7-carboxylic acid isopropylamide]
> 80%: [6] | [7] | [5]

CC(C)NC(=O)c1c(NC(=O)c2cc(C(F)(F)F)nn2-c2ncccc2Cl)c(Cl)cc2c(Br)n[nH]c12 [P.67]
not listed: [2] | [7]
> 80%: all other assays above

O=C(NC1(C2CC2)CC1)c1c(NC(=O)c2cc(C(F)(F)F)nn2-c2ncccc2Cl)c(Cl)cc2c(Br)n[nH]c12 [P.68]
not listed: [2] | [7]
> 80%: all other assays above

Cc1cc2cn[nH]c2c(C(=O)NC2(C3CC3)CC2)c1NC(=O)c1cc(Br)nn1-c1ncccc1Cl [P.71, 6-{[5-bromo-2-(3-chloro-pyridin-2-yl)-2H-pyrazole-3-carbonyl]-amino}-5-methyl-1H-indazole-7-carboxylic acid bicyclopropyl-1-ylamide]
> 80%: [6] | [3] | [7] | [5]
